Where no end group is shown, it is not given here.

For assay [1], the target named is calcitonin receptor-like receptor (CLR) in complex with receptor activity-modifying protein 1 (RAMP1) (Homo sapiens, UniProt O60894+Q16602). Conditions: removal of residues 1-7; cited from earlier work.
The test system of assay [2] is retina (photoreceptors, bipolar cells). The assay can be described thus: Electroretinography (scotopic A-wave and B-wave amplitude) after ET-1 induced retinal ischemia. Conditions: day 21, ET-1 induced ischemia right eye (5 μL 500 μM), ET-1 alone/vehicle. The class given is in vivo, Sprague dawley rat.
Protocol: Rats were anesthetized with 90 mg/kg ketamine & 10 mg/kg xylazine (i.p). Oxybuprocain 0.4% Anesthetic was applied topically to the eyes.
Guided under a stereoscopic microscope to avoid lens and retinal injury, 5 μl intravitreal injection of 500 uM ET-1 (Phoenix Pharmaceuticals, Inc.) was performed using a digital controller and UltraMicroPump III, with NanoFil 10 μl syringe (WPI) connected to intraoucular injector with a 34 g bevelled needle.
Injection was performed through the sclera, inserted approximately 1 mm posterior to the corneal limbus at a 45° angle to avoid contact with the lens capsule and direct the contents, 1.5 mm into the vitreous chamber, in the right eye (FIG. 1). The needle remained in the vitreous cavity for 30 seconds after injection and was then gently withdrawn. […]
Day 0—ET-1 is administered intravitreally alone or in combination with the current invention. Fundus is recorded before and after injection. […]
After overnight dark adaptation for at least 12 hours, the animals were anesthetized with 90 mg/kg ketamine and 10 mg/kg xylazine delivered by a single intraperitoneal injection. […] ERGs were recorded from both eyes simultaneously with a gold wire electrode loops, placed on the corneal apex, with a drop of saline applied to the corneal surface for hydration during the testing procedure. […] The scotopic A-wave amplitude and B-wave amplitude were recorded and evaluated.

Sequence of calcitonin receptor-like receptor (CLR) in complex with receptor activity-modifying protein 1 (RAMP1) (Q16602 23-461): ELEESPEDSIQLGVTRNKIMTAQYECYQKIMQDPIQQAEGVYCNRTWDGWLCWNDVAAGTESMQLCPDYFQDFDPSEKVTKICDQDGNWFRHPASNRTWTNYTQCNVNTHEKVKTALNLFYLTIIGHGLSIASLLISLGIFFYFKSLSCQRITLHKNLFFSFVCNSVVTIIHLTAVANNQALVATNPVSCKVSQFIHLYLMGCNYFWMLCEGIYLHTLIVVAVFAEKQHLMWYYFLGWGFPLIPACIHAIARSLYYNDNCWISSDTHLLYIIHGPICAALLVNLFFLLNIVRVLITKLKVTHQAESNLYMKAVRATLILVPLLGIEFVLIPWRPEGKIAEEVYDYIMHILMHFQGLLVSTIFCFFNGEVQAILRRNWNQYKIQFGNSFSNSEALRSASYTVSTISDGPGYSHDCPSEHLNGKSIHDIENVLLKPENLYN
Sequence of calcitonin receptor-like receptor (CLR) in complex with receptor activity-modifying protein 1 (RAMP1) (O60894 27-148): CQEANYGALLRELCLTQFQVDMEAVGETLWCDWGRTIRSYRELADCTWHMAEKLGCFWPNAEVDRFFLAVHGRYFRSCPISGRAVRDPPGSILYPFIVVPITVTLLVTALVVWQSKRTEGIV

For CGRP8-37, in assay [1], the “binding potency relative to CGRP (less potent)” value is “approximately 10 fold” and the efficacy result is “lost all efficacy”.
On to “Endothelin-1 (CSCSSLMDKECVYFCHLDIIW; ends and bridges not checked; cysteine pairing not given here; UniProt P05305 53-73, looked up) [ET-1, vasoconstrictive peptide injected intravitreally to induce retinal ischemia]”, for which, in assay [2], the “avg. max A-wave amplitude” value is reported as 457±40 μV and the “avg. max B-wave amplitude” value is 804±188 μV.

These data come from patent publication US20220023389A1, “VASODILATORS FOR USE IN THE TREATMENT OF A RETINAL ISCHEMIC DISORDER” (University of Copenhagen, priority 2018, published 2022).
